This is an account of results in US20230200393A1, “SELECTIVE HERBICIDES BASED ON SUBSTITUTED ISOXAZOLIN CARBOXAMIDES AND METCAMIFEN” (Bayer Aktiengesellschaft, priority 2020, published 2023).

The subject of experiment [1] is ZEAMA Sileno. Kind of experiment: Safener seed treatment, pre-emergence herbicide crop damage. Format: in vivo, maize. Conditions: for HER effect: no safener. As for the experimental part: (§1) For the safener seed treatment, sufficient seeds of the respective crops (spring wheat, TRZAS; spring barley, HORVS; maize, ZEAMA) were weighed into screw top glass bottles approximately twice the volume of the seeds.
(§2) The specified safeners, formulated as wettable powder (WP) were weighed out so that the specified rates (g a.i./kg seed) would be obtained, dissolved in water (1 ml water per 10 g of seeds), and added to the seeds to produce a slurry.
(§3) The bottles were capped and then placed in an overhead shaker (set at medium speed for ca. 60 minutes) so that the seeds were evenly coated with the slurry. The bottles were uncapped and the seeds were either placed on paper and dried for an interval of 3-4 hours prior to sowing, or directly sown. Seeds were placed in sandy loam soil in pots of a diameter of 7-8 cm, and covered with soil.
(§4) Pre-emergence application of the specified herbicides was done subsequently, on two sets of plants:
(§5) a) seed treatment with safener, as described above
(§6) The herbicides were formulated as WP and was sprayed onto the soil surface as an aqueous suspension at an equivalent water application rate of 300 l/ha.
(§7) After application, the test plants were kept in the greenhouse under good growth conditions. At intervals up to 4 weeks after application (=28 days after treatment; DAT), % crop damage observed on the treated plants was scored visually in comparison to control plants that had not received any safener or herbicide treatment.
(§8) Values in the table below are mean values of at least 2 replicates.

Experiment [2] relates to ZEAMA Sileno. Kind of experiment: Tank-mix post-emergence crop damage, herbicide with/without safener metcamifen. In kind it is in vivo, maize. Particulars: for HER effect + SAF / Reduction [%] / Reduction [Difference]: Final; for HER effect: no safener, Final assessment, post-emergence. As for the experimental part: (§9) Seeds of crops (spring wheat, TRZAS; spring barley, HORVS; maize, ZEAMA) were placed in sandy loam soil in peat pots, covered with soil and cultivated in a greenhouse under good growth conditions. Two to three weeks after sowing, the test plants were treated at the 1 to 3-leaf stage. The herbicide/safener active compound combinations according to the invention, formulated as wettable powders or emulsion concentrates, and, in parallel tests, the correspondingly formulated individual active compounds were sprayed onto the green parts of the plants in various dosages using an amount of water of 300 l/ha (converted).
(§10) The pots were returned under good growing conditions in a glasshouse and a visual assessment of herbicidal effects was made at intervals from 1 to 3 weeks after herbicide application (DAT=days after treatment). Assessment was on a percentage basis in comparison with untreated control plants (0%=no injury, 100%=complete kill).

In experiment [3] the test system is TRZAS Triso. Described as above. Format: in vivo, spring wheat. Conditions: 21 DAT. As for the experimental part:
as §9, §10

Experiment [4] deals with TRZAS Triso. The experiment in a line: Safener seed treatment, pre-emergence herbicide crop damage. Particulars: 21 (Final) DAT; for HER effect: no safener. Format: in vivo, spring wheat. The procedure: as §1, §2, §3, §4, §5, §6, §7, §8
Setting [5] is: HER 80 g a.i./ha + metcamifen seed treatment 0.25 g a.i./kg seed, 14 DAT.
[6] abbreviates: HER 80 g a.i./ha + metcamifen seed treatment 0.25 g a.i./kg seed, 26 DAT.
[7] abbreviates: HER 40 g a.i./ha + metcamifen seed treatment 0.25 g a.i./kg seed, 14 DAT.
[8] abbreviates: HER 40 g a.i./ha pre-emergence, 14 DAT.
The mark [9] stands for this setting: HER 40 g a.i./ha + metcamifen seed treatment 0.25 g a.i./kg seed, 26 DAT.
The mark [10] stands for this setting: HER 8 g a.i./ha + metcamifen 50 g a.i./ha.
Setting [11] is: HER 32 g a.i./ha + metcamifen 100 g a.i./ha.
Setting [12] is: HER 0.5 g a.i./ha + metcamifen 50 g a.i./ha.
Where [13] appears, read: HER 2 g a.i./ha + metcamifen 50 g a.i./ha.
The mark [14] stands for this setting: HER 5 g a.i./ha + metcamifen seed treatment 0.25 g a.i./kg seed.
Where [15] appears, read: HER 15 g a.i./ha + metcamifen seed treatment 0.25 g a.i./kg seed.
Where [16] appears, read: HER 8 g a.i./ha + metcamifen 100 g a.i./ha.
Where [17] appears, read: HER 32 g a.i./ha + metcamifen 50 g a.i./ha.

The structures appear in SMILES notation.

Take `COCCOC(=O)C1C=CC(NC(=O)C2(C)CC(c3cc(Cl)cc(C#N)c3)=NO2)C1` (stereo not drawn) [Example 1.5]: in the experiment on ZEAMA Sileno [1] (setting [5]), the “HER effect + SAF” value was found to be 35% and the “Reduction [%]” value turned out to be 42%. Moreover, in the experiment with ZEAMA Sileno [1] (setting [6]), the “HER effect + SAF” value is on record as 25% and the “Reduction [%]” value was 44%.

As for `COCCOC(=O)C1C=CC(NC(=O)C2(C(F)(F)F)CC(c3cc(F)cc(C#N)c3)=NO2)C1` (stereo not drawn) [Example 1.2], in the experiment with ZEAMA Sileno [1] (setting [7]), the “HER effect + SAF” value is listed as 20%, the “Reduction [%]” value is 50% and the “Reduction [Difference]” value came to 20. For the same compound, the HER effect with ZEAMA Sileno [1] (setting [8]) was determined as 40%.

Consider `CSCCOC(=O)C1C=CC(NC(=O)C2(C(F)(F)F)CC(c3cc(F)cc(F)c3)=NO2)C1` (stereo not drawn) [Example 1.7], for which, in the experiment on ZEAMA Sileno [1] (setting [7]), the “HER effect + SAF” value is given as 55%, the “Reduction [%]” value is reported as 34% and the “Reduction [Difference]” value was determined as 28. Also, in the experiment with ZEAMA Sileno [1] (setting [9]), the “Reduction [%]” value came to 44% and the “Reduction [Difference]” value turned out to be 20. The compound also displayed an HER effect with ZEAMA Sileno [1] (setting [8]) of 83%.

For the compound `C=CC1(C(=O)NC2C=CC(C(=O)OC)C2)CC(c2cc(F)cc(F)c2)=NO1` (stereo not drawn) [Example 1.26], the “HER effect + SAF” value came out at 22% in the experiment on ZEAMA Sileno [2] (setting [10]), 35% in the experiment on ZEAMA Sileno [2] (setting [11]), 20% in the experiment with TRZAS Triso [3] (setting [12]) and 80% in the experiment with TRZAS Triso [3] (setting [13]). Moreover, the “Reduction [%]” value with ZEAMA Sileno [2] (setting [10]) came to 61%; in the experiment on ZEAMA Sileno [2] (setting [11]) it was 63%; in the experiment on TRZAS Triso [3] (setting [12]), 50%; in the experiment with TRZAS Triso [3] (setting [13]) it was 11%; in the experiment on ZEAMA Sileno [1] (setting [5]), 86%; with ZEAMA Sileno [1] (setting [6]), 86%. For the same compound, the “Reduction [Difference]” value in the experiment with ZEAMA Sileno [2] (setting [10]) came to 35; in the experiment with ZEAMA Sileno [2] (setting [11]) it was 59; in the experiment with TRZAS Triso [3] (setting [13]), 10. In addition, the HER effect in the experiment on ZEAMA Sileno [2] (HER 8 g a.i./ha) came to 57%; in the experiment with ZEAMA Sileno [2] (HER 32 g a.i./ha), 94%; in the experiment on TRZAS Triso [3] (HER 2 g a.i./ha, no safener) it was 90%; with ZEAMA Sileno [1] (setting [8]), 25%.

Turning to `C=CC1(C(=O)NC2C=C(C(=O)OC)OC2)CC(c2cc(C)cc(C)c2)=NO1` (stereo not drawn) [Example 1.90], in the experiment with ZEAMA Sileno [1] (setting [6]), the “Reduction [%]” value stood at 83% and the “Reduction [Difference]” value was 25. Moreover, in the experiment with ZEAMA Sileno [1] (HER 80 g a.i./ha pre-emergence, 26 DAT), the HER effect is reported as 30%.

On to `C=CC1(C(=O)NC2COC(C(=O)OC)C2)CC(c2cc(F)cc(F)c2)=NO1` (stereo not drawn) [Example 1.70], for which the “HER effect + SAF” value in the experiment on ZEAMA Sileno [1] (setting [7]) is 20%; in the experiment with ZEAMA Sileno [1] (setting [9]) it was 5%; with ZEAMA Sileno [1] (setting [6]), 25%. The “Reduction [%]” value with ZEAMA Sileno [1] (setting [7]) came out at 75%; in the experiment with ZEAMA Sileno [1] (setting [9]), 94%; in the experiment on ZEAMA Sileno [1] (setting [5]), 63%; in the experiment on ZEAMA Sileno [1] (setting [6]), 74%. In addition, the “Reduction [Difference]” value is 60 in the experiment on ZEAMA Sileno [1] (setting [7]), 80 in the experiment with ZEAMA Sileno [1] (setting [9]), 60 in the experiment on ZEAMA Sileno [1] (setting [5]) and 70 with ZEAMA Sileno [1] (setting [6]).

As to `COC(=O)C1COCC1NC(=O)C1(C)CC(c2cc(F)cc(F)c2)=NO1` (mixture of isomers) [Example 1.93], in the experiment with TRZAS Triso [4] (setting [14]), the “HER effect + SAF” value stood at 5%, the “Reduction [%]” value is 86% and the “Reduction [Difference]” value is 30. This compound registered an HER effect with TRZAS Triso [4] (HER 5 g a.i./ha pre-emergence) of 35%. Also, in the experiment on TRZAS Triso [4] (setting [15]), the “HER effect + SAF” value is given as 10%, the “Reduction [%]” value came to 85% and the “Reduction [Difference]” value came to 55. Further, the HER effect in the experiment with TRZAS Triso [4] (HER 15 g a.i./ha pre-emergence) is recorded as 65%.

`C=CC1(C(=O)NC2COC(C(=O)OC)C2)CC(c2cc(F)cc(F)c2)=NO1` (stereo not drawn) [Example 1.69]: in the experiment on ZEAMA Sileno [1] (setting [7]), the “HER effect + SAF” value was 20%, the “Reduction [%]” value stood at 79% and the “Reduction [Difference]” value is 75. For the same compound, in the experiment with ZEAMA Sileno [1] (setting [9]), the “Reduction [%]” value was 67% and the “Reduction [Difference]” value is listed as 60.

`C=CC1(C(=O)NC2COC(C(=O)OC)C2)CC(c2cc(F)cc(F)c2)=NO1` (mixture of isomers) [Example 1.68]: the “HER effect + SAF” value was determined as 48% in the experiment on ZEAMA Sileno [2] (setting [16]); 67% with ZEAMA Sileno [2] (setting [17]); 30% in the experiment with ZEAMA Sileno [1] (setting [7]); 75% in the experiment on ZEAMA Sileno [1] (setting [5]); 10% with TRZAS Triso [4] (setting [14]). The “Reduction [Difference]” value in the experiment with ZEAMA Sileno [2] (setting [16]) stood at 48; in the experiment with ZEAMA Sileno [2] (setting [17]) it was 31; with ZEAMA Sileno [1] (setting [7]), 63; in the experiment with ZEAMA Sileno [1] (setting [9]), 70; in the experiment with ZEAMA Sileno [1] (setting [5]) it was 22. Besides, the HER effect stood at 96% in the experiment on ZEAMA Sileno [2] (HER 8 g a.i./ha); 98% in the experiment on ZEAMA Sileno [2] (HER 32 g a.i./ha); 95% in the experiment on ZEAMA Sileno [1] (HER 40 g a.i./ha pre-emergence, 26 DAT); 97% in the experiment with ZEAMA Sileno [1] (HER 80 g a.i./ha pre-emergence, 14 DAT). The “Reduction [%]” value in the experiment on ZEAMA Sileno [2] (setting [17]) was determined as 32%; with ZEAMA Sileno [1] (setting [7]) it was 68%; in the experiment on ZEAMA Sileno [1] (setting [9]), 74%; in the experiment on ZEAMA Sileno [1] (setting [5]), 23%; with TRZAS Triso [4] (setting [14]) it was 78%.

For `COC(=O)C1OCCC1NC(=O)C1(C)CC(c2cc(F)cc(F)c2)=NO1` (stereo not drawn) [Example 1.92], in the experiment on ZEAMA Sileno [1] (setting [7]), the “Reduction [%]” value is recorded as 87% and the “Reduction [Difference]” value came out at 65. In addition, in the experiment with ZEAMA Sileno [1] (setting [9]), the “HER effect + SAF” value was 0% and the “Reduction [%]” value stood at 100%.
